According to patent US20120329787A1, “FUNGICIDAL PYRANONES AND OXAZINONES” (E.I. DU PONT DE NEMOURS AND COMPANY, priority 2011, published 2012):

Experiments:
Assay type in all cases: in vivo
Botrytis cinerea = assay: Test A: tomato Botrytis, spray on tomato seedlings the day before inoculation; details: 200 ppm test suspension; for pest or weed control at 200 ppm: Botrytis cinerea, 120 h, read-out: Test A rating (100 = 100% disease control, 0 = no disease control)
In short: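 Tomato seedlings sprayed to run-off with compound suspension (200 ppm, ≈500 g/ha; some at 40 ppm) in acetone/water with 250 ppm Trem 014, inoculated next day with Botrytis cinerea spores. Held 48 h saturated at 20 °C, then 3 days at 24 °C; disease rated visually.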

Rhizoctonia solani = assay: Test D: turf brown patch, spray on creeping bent grass seedlings the day before inoculation; details: 200 ppm test suspension
Excerpt: General protocol for preparing test suspensions for Tests A-I: the test compounds were first dissolved in acetone in an amount equal to 3% of the final volume and then suspended at the desired concentration (in ppm) in acetone and purified water (50/50 mix by volume) containing 250 ppm of the surfactant Trem® 014 (polyhydric alcohol esters). The resulting test suspensions were then used in Tests A-I. Spraying a 200 ppm test suspension to the point of run-off on the test plants was the equivalent of a rate of 500 g/ha. […] (An asterisk “*” next to the rating value indicates a 40 ppm test suspension was used.) The test suspension was sprayed to the point of run-off on creeping bent grass (Agrostis sp.) seedlings. The following day, the seedlings were inoculated with a bran and mycelial slurry of Rhizoctonia solani (the causal agent of turf brown patch) and incubated in a saturated atmosphere at 27° C. for 48 h, and then moved to a growth chamber at 27° C. for 3 days, after which time disease ratings were made. […] A dash (-) indicates no test results. All results are for 200 ppm except where followed by an asterisk “*”, which indicates a 40 ppm.

Phytophthora infestans = details: 200 ppm test suspension; tomato seedlings
[1] = tested on: Erysiphe graminis f. sp. tritici; assay: Test I: wheat powdery mildew, spray on wheat seedlings the day before inoculation; details: 200 ppm test suspension; for pest or weed control at 200 ppm: Blumeria graminis, 168 h, read-out: Test I rating (100 = 100% disease control, 0 = no disease control)
In short: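 Wheat seedlings sprayed to run-off with compound at 200 ppm (40 ppm where marked; 200 ppm ≈ 500 g/ha) in acetone/water with 250 ppm surfactant. Inoculated next day with E. graminis spore dust; visual disease rating after 7 days at 20° C.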

[2] = tested on: Puccinia recondita f. sp. tritici; assay: Test H: wheat leaf rust, spray on wheat seedlings the day before inoculation; details: 200 ppm test suspension, sprayed before inoculation; for pest or weed control at 200 ppm: Puccinia recondita, 168 h, read-out: Test H rating (100 = 100% disease control, 0 = no disease control)
In short: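 Wheat seedlings sprayed to run-off with compound suspensions (acetone/water with surfactant; 200 ppm ≈ 500 g/ha, or 40 ppm), inoculated next day with rust spores. Plants kept 24 h in saturated atmosphere at 20 °C, then 6 days in a 20 °C growth chamber before visual disease rating.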

Septoria nodorum = assay: Test E: Septoria glume blotch, spray on wheat seedlings the day before inoculation; details: 200 ppm test suspension; for pest or weed control at 200 ppm: Parastagonospora nodorum, 264 h, read-out: Test E rating (100 = 100% disease control, 0 = no disease control)
In short: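 Compounds in acetone/water (50/50) with 250 ppm Trem 014 surfactant, sprayed to run-off on wheat seedlings the day before Septoria nodorum inoculation. Tested at 200 ppm (equivalent to 500 g/ha) unless marked 40 ppm.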

Alternaria solani = assay: Test B: tomato early blight, spray on tomato seedlings the day before inoculation; details: 200 ppm test suspension; for pest or weed control at 200 ppm: Alternaria solani, 168 h, read-out: Test B rating (100 = 100% disease control, 0 = no disease control)
In short: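 Tomato seedlings sprayed to run-off with 200 ppm suspension (40 ppm where asterisked), inoculated next day with Alternaria solani spores. Kept 48 h at 27 °C in saturated atmosphere, then 5 days at 20 °C before visual disease rating.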

[3] = tested on: Puccinia recondita f. sp. tritici; assay: Test G: wheat leaf rust, spray on wheat seedlings after inoculation (curative); details: 200 ppm test suspension, sprayed after inoculation; for pest or weed control at 200 ppm: Puccinia recondita, 96 h, read-out: Test G rating (100 = 100% disease control, 0 = no disease control)
In short: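 Curative test: wheat seedlings inoculated with P. recondita spores, held 24 h saturated at 20 °C then 2 days at 20 °C, then sprayed to run-off with compound suspension (200 ppm ≈ 500 g/ha; asterisk = 40 ppm) in acetone/water with 250 ppm surfactant. Visual disease rating after 4 further days at 20 °C.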

Septoria tritici = assay: Test F: wheat leaf blotch, spray on wheat seedlings the day before inoculation; details: 200 ppm test suspension; for pest or weed control at 200 ppm: Zymoseptoria tritici, 504 h, read-out: Test F rating (100 = 100% disease control, 0 = no disease control)
In short: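 Wheat seedlings sprayed to run-off with 200 ppm (≈500 g/ha) or 40 ppm suspension in acetone/water with 250 ppm Trem 014. Next day inoculated with Septoria tritici spores, held 48 h saturated at 24° C, then 19 days at 20° C before visual disease rating.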

SMILES	Test A rating (100 = 100% disease control, 0 = no disease control) (Botrytis cinerea) [%]	Test D rating (100 = 100% disease control, 0 = no disease control) (Rhizoctonia solani) [%]	Test C rating (100 = 100% disease control, 0 = no disease control) (Phytophthora infestans) [%]	Test I rating (100 = 100% disease control, 0 = no disease control) [1] [%]	Test H rating (100 = 100% disease control, 0 = no disease control) [2] [%]	Test E rating (100 = 100% disease control, 0 = no disease control) (Septoria nodorum) [%]	Test B rating (100 = 100% disease control, 0 = no disease control) (Alternaria solani) [%]	pest or weed control at 200 ppm (Botrytis cinerea) [%]	pest or weed control at 200 ppm [3] [%]	pest or weed control at 200 ppm [1] [%]	pest or weed control at 200 ppm [2] [%]	pest or weed control at 200 ppm (Septoria nodorum) [%]	pest or weed control at 200 ppm (Septoria tritici) [%]	pest or weed control at 200 ppm (Alternaria solani) [%]	Test G rating (100 = 100% disease control, 0 = no disease control) [3] [%]	Test F rating (100 = 100% disease control, 0 = no disease control) (Septoria tritici) [%]
Cc1noc(=O)c(-c2c(F)cc(F)cc2F)c1-c1cccc(F)c1 [Compound 5]	0	16	0	20	0	0	54	–	–	–	–	–	–	–	–	–
Cc1noc(=O)c(-c2c(F)ccc(F)c2F)c1-c1ccc(Cl)cc1 [Compound 6]	99	0	0	96	41	0	99	–	–	–	–	–	–	–	–	–
Cc1noc(=O)c(-c2c(F)cccc2F)c1-c1ccc(Cl)cc1 [Compound 7]	100	75	0	100	99	0	100	–	–	–	–	–	–	–	–	–
Cc1noc(=O)c(-c2c(F)cccc2Cl)c1-c1ccc(Cl)cc1 [Compound 8]	100	52	0	99	98	0	99	–	–	–	–	–	–	–	–	–
Cc1ccc(-c2c(C)noc(=O)c2-c2c(F)cc(F)cc2F)cc1 [Compound 9]	90	99	0	96	96	0	46	–	–	–	–	–	–	–	–	–
COc1cc(OC)cc(-c2c(-c3ccc(F)cc3F)c(C)oc(=O)c2C)c1 [Compound 48, 5-(2,4-difluorophenyl)-4-(3,5-dimethoxyphenyl)-3,6-dimethyl-2H-pyran-2-one]	–	–	–	–	–	–	–	100	100	100	100	99	100	97	–	–
COc1cc(F)c(-c2c(-c3cc(OC)cc(OC)c3Cl)c(C)oc(=O)c2C)c(F)c1 [Compound 49]	100	–	–	99	100	99	100	–	–	–	–	–	–	–	100	100
COc1cc(OC)cc(-c2c(-c3c(F)cccc3F)c(C)oc(=O)c2C)c1 [Compound 51]	100	–	–	96	100	0	0	–	–	–	–	–	–	–	75	100
COc1cc(OC)c(Cl)c(-c2c(-c3c(F)cccc3F)c(C)oc(=O)c2C)c1Cl [Compound 53]	61	–	–	0	88	0	0	–	–	–	–	–	–	–	0	47
COc1cc(OC)c(Cl)c(-c2c(-c3ccc(F)cc3Cl)c(C)oc(=O)c2C)c1 [Compound 54, 4-(2-chloro-3,5-dimethoxyphenyl)-5-(2-chloro-4-fluorophenyl)-3,6-dimethyl-2H-pyran-2-one]	–	–	–	–	–	–	–	100	99	100	100	100	100	96	–	–
COc1cc(OC)cc(-c2c(-c3c(F)cc(F)cc3F)c(C)oc(=O)c2C)c1 [Compound 55, 4-(3,5-dimethoxyphenyl)-3,6-dimethyl-5-(2,4,6-trifluorophenyl)-2H-pyran-2-one]	–	–	–	–	–	–	–	77	100	100	100	99	100	100	–	–
COc1cc(OC)cc(-c2cc(=O)oc(C)c2-c2ccc(F)cc2Cl)c1 [Compound 56]	94	–	–	100	100	99	99	–	–	–	–	–	–	–	100	100
